Our source for the IC50 values is ChEMBL document CHEMBL1129992, “Arylamide inhibitors of HIV-1 integrase” (J Med Chem, 1997).

The structures appear in SMILES notation.

For orientation: IC50 means the point on the concentration scale where inhibition reaches its midpoint. Read a low IC50 as higher potency.

Assay [1] addresses T1, Human immunodeficiency virus type 1 integrase (Human immunodeficiency virus 1, UniProt Q7ZJM1). Nature of the assay: Inhibition of HIV-1 integrase-mediated 3'-processing.
In assay [2] the target is T1, Human immunodeficiency virus type 1 integrase. The experiment in a line: Inhibition of HIV-1 integrase-mediated strand transfer.

T1 sequence (Q7ZJM1 whole entry): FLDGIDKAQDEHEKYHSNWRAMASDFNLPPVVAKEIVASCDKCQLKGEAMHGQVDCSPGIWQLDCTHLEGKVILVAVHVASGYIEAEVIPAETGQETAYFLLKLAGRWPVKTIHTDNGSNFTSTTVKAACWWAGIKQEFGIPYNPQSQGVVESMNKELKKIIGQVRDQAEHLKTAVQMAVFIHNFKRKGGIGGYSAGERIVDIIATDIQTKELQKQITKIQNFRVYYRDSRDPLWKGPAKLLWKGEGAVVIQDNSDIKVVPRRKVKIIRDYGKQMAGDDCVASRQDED

As for `COc1ccc2cc(C(=O)NCCCNC(=O)c3ccc4cc(OC)ccc4c3)ccc2c1`, the IC50 in assay [1] and in assay [2] was greater than 200 µM each time.
As to `O=C(CCc1ccc(O)cc1)NCCc1ccc(O)cc1`, the IC50 in assay [1] was greater than 350 µM.
Consider `O=C(CCc1cc(O)cc(O)c1)NCCCNC(=O)CCc1cc(O)cc(O)c1`, for which the IC50 in assay [1] and in assay [2] was greater than 200 µM throughout.
For `COc1cc2ccc(C(=O)NCCCNC(=O)c3ccc4cc(OC)c(OC)cc4c3)cc2cc1OC`, the IC50 in assay [1] and in assay [2] was greater than 200 µM in each case.
In the case of `O=C(CCc1ccc(O)c(O)c1)NCCc1ccc(O)c(O)c1`, in assay [1], the IC50 worked out at 33 µM.
Regarding `COC(=O)c1ccc2c(O)c(O)ccc2c1`, the IC50 in assay [1] was determined as 58.4 µM; in assay [2] it was 52.7 µM.
Consider `O=C(O)c1ccc2c(O)c(O)ccc2c1`, for which the IC50 is 53.3 µM in assay [1] and 62.4 µM in assay [2].
For `O=C(O)c1ccc2cc(O)c(O)cc2c1`, the IC50 in assay [1] is 5.4 µM; in assay [2], 4.7 µM.
In the case of `O=C(NCCCNC(=O)c1ccc2c(O)c(O)ccc2c1)c1ccc2c(O)c(O)ccc2c1`, the IC50 was 0.23 µM in assay [1] and 0.11 µM in assay [2].
On to `COC(=O)c1ccc2cc(O)ccc2c1`, for which the IC50 in assay [1] and in assay [2] was greater than 200 µM each time.
For the compound `O=C(CCc1ccc(O)c(O)c1)NCCc1cc(O)cc(O)c1`, the IC50 in assay [1] is greater than 350 µM.
In assay [1], `O=C(CCc1ccc(O)cc1)NCCc1cccc(O)c1` showed an IC50 greater than 350 µM.
For the compound `COc1ccc2cc(C(=O)NCCCNC(=O)c3ccc4c(OC)c(OC)ccc4c3)ccc2c1OC`, the IC50 in assay [1] and in assay [2] was greater than 200 µM throughout.
For the compound `O=C(NCCCNC(=O)c1ccc2cc(O)c(O)cc2c1)c1ccc2cc(O)c(O)cc2c1`, the IC50 in assay [1] came to 0.98 µM; in assay [2] it was 0.81 µM.
Take `COC(=O)c1ccc2cc(O)c(O)cc2c1`: the IC50 in assay [1] and in assay [2] was greater than 200 µM throughout.
Regarding `O=C(NCCCNC(=O)c1ccc2cc(O)ccc2c1)c1ccc2cc(O)ccc2c1`, the IC50 in assay [1] and in assay [2] was greater than 200 µM throughout.
`O=C(CCc1cc(O)cc(O)c1)NCCc1cc(O)cc(O)c1` showed an IC50 in assay [1] greater than 350 µM.
Regarding `O=C(O)c1ccc2cc(O)ccc2c1`, the IC50 in assay [1] and in assay [2] was 172 µM each time.
Consider `O=C(CCc1ccc(O)cc1)NCCCNC(=O)CCc1ccc(O)cc1`, for which the IC50 in assay [1] and in assay [2] was greater than 200 µM throughout.
`O=C(CCc1cccc(O)c1)NCCc1ccc(O)cc1` displayed an IC50 in assay [1] greater than 350 µM.
As for `O=C(CCc1cccc(O)c1)NCCc1cccc(O)c1`, the IC50 in assay [1] was greater than 350 µM.
For `O=C(CCc1cccc(O)c1)NCCCNC(=O)CCc1cccc(O)c1`, the IC50 in assay [1] and in assay [2] was greater than 200 µM throughout.
In assay [1], `O=C(CCc1cc(O)cc(O)c1)NCCc1ccc(O)c(O)c1` yielded a half-inhibitory concentration (IC50) greater than 350 µM.
